Measured values: patent publication US8987212B2, “Oleanoyl peptide composition and method of treating skin aging” (priority 2007, dated 2015)
Where a SMILES comes first, the peptide text is derived from it. The star is where a group is joined. X1 = CC1(C)CC[C@]2(C(=O)*)CC[C@]3(C)C(=CCC4[C@@]5(C)CC[C@H](O)C(C)(C)C5CC[C@]43C)C2C1

How the values were obtained:
[1] = molecular target: porcine pancreatic elastase (Sus scrofa, UniProt P00772); experiment: EnzChek Elastase Assay, elastase inhibitory potential
TNF α = TNF α inhibition in LPS-stimulated human whole blood (ELISA); assay type: cell-based; conditions: human whole blood, LPS 1 ng/mL
Source text: For TNF α inhibitory study, human whole blood is used. In whole blood assay, monocytes appear to be the main source of TNF-α on lipopolysaccharide (LPS) stimulation. Monocyte and macrophages are a major source of TNF-α in addition to other cell types like eosinophils, mast cells, peripheral lymphocytes and granulocytes. The activation of inflammatory cells is influenced by the intracellular levels of c-AMP which are regulated by the phosphodiesterase isoenzyme. […] After stimulation, the assay employs the quantitative sandwich enzyme immunoassay technique. A monoclonal antibody specific for TNF-α has been pre-coated onto a microplate. TNF-α present in the sample is bound by the immobilized antibody. After washing away any unbound substances, an enzyme-linked polyclonal antibody specific for TNF-α is added. Following a wash to remove any unbound antibody-enzyme reagent, a substrate solution is added to the wells and colour develops in proportion to the amount of TNF-α bound in the initial step. The colour development is stopped and the intensity of the colour is directly proportional to the TNF-α content.
Heparinized blood from healthy donors was diluted 1:3 in RPMI 1640 culture medium containing 10% FBS. […] 0.1% DMSO was used as vehicle for water insoluble samples. After pre-incubation, the whole blood cells were stimulated by 1 ng/mL LPS for the release of TNF α from the macrophages by incubating for 5 hr at 37° C. in an incubator with 5% COP. The samples were then centrifuged at 3000 g for 3 minutes at 4° C. and the supernatant was assayed for TNF α content by using the TNF α Elisa kit. 200 μL of supernatant from all the tubes was transferred into microtiter plate in respective wells (Pre-coated mouse monoclonal antibody microplate) followed by the addition of 50 μL of assay diluents in all the wells. After incubation for 2 hr at room temperature, the wells were washed thoroughly with wash buffer provided and then 200 μL of conjugate was added to each well. The plate was incubated for 2 hr at room temperature. After washing again, 200 μL of substrate solution was added to each well and incubated for 20 minutes at room temperature. 50 μL of Stop Solution to each well which will cause the colour change in the wells from blue to yellow was added. The optical density was read at 450 nm which is directly proportional to TNF α content and the percentage of inhibition of TNF α content on treatment with sample was calculated with respect to that of the untreated cells.
T=absorbance due to TNF α in the presence of inhibitor

human skin = experiment: Effect of Oleanoyl peptide cream on human facial skin; assay type: in vivo; conditions: cream with Oleanoyl peptide (0.01%), twice daily, three weeks, photographs
Description: To study the potential effect of Oleanoyl peptide on human skin, candidates were selected in-house whose age ranging from about 30 to 60 with moderate to severe signs of aging. A topical composition comprising Oleanoyl peptide (0.01%) was prepared as a cream for application on the skin.
The cream containing Oleanoyl peptide was applied on the affected areas of facial skin of the candidates twice daily for a continuous period of three weeks. Photographs of the candidates were taken before and after three weeks of application of the cream.

Human osteosarcoma cells = experiment: Collagen enhancement by Sirius Red staining; assay type: cell-based; conditions: at 1.25 ppm, 48 hrs, vs untreated cells
Description: Collagen enhancement was determined by using Sirius Red stain that binds with a greater specificity to Collagen type I and Collagen type III of the extracellular matrix. The stain bound to the collagen is dissolved and the optical density (OD) is measured spectrophotometrically using a Fluostar optima microtiter plate reader at 544 nm. The OD of the stain bound to collagen is directly proportional to the collagen content in the cells.
Human osteosarcoma cells from human bone were used for collagen enhancement studies. The cells were seeded with a seeding density of 10000 cells per well of a 24 well plate. Confluent monolayers of cells were initially treated with varying non cytotoxic concentrations of Oleanoyl peptide and vehicle (control) in the culture medium. For each concentration, 4 replicates were maintained and the analysis was performed twice such that the ‘n’ value is 8. After sample treatment, the cells were incubated in a CO2 incubator for 48 hrs. The cells were then developed by Sirius red staining technique to analyze the collagen enhancement. The cells were washed extensively with PBS. The cells were fixed using Bouin's fluid containing 1.3% picric acid, 35% formaldehyde and glacial acetic acid in 15:5:1 ration by incubating with 1 ml of Bouin's fluid per well for 1 hr at RT. The fixative is then removed by suction with micropipette and the cells were washed under running tap water for 15 minutes. After air drying the culture plate, the cells were stained using 0.1% Sirius red stain in 1.3% picric acid. 1 ml per well Sirius red stain was added and the cells were incubated for 1 hr under mild shaking of 70 RPM at RT in Orbitek Shaker. The stain was then removed by suction and the cells were extensively washed with 0.01N HCl to remove unbound dye. The dye bound to collagen was then dissolved in 0.2 ml of 0.1N NaOH per well for 30 minutes under mild shaking of 70 RPM in Orbitek Shaker at RT. The dye was then transferred to 96 well microplate and the OD was read at 544 nm in Fluostar Optima microplate reader.
The percentage enhancement in collagen with respect to the untreated cells considering the OD of untreated cells as optimal under normal conditions is calculated as follows, % enhancement in […]=[(100/C)×T]−100 Where C=absorbance due to collagen in untreated cells
T=absorbance due to collagen in sample treated cells

[2] = molecular target: Collagenase Type IV from Clostridium histolyticum; conditions: Collagenase Type IV 0.2 U/ml, DQ gelatin, 30 minutes
Nitric Oxide (NO) = experiment: Extracellular nitric oxide from LPS-challenged human neutrophils; assay type: cell-based; conditions: for % activity NO expression against LPS control: ↓ = inhibition
Description: (§1) Experimental observations were made in human neutrophil that were challenged with LPS. […] Rolipram at 100 μg/ml dose level was used as a standard drug to observe the authenticity and reproducibility of the experimental design.
The Oleanoyl peptide was also screened for NO and PGE2 expression.

[3] = system: Interleukin-1beta (IL-1β); experiment: Extracellular IL-1β from LPS-challenged human neutrophils; assay type: cell-based; conditions: for % activity IL-1β expression against LPS control: ↓ = inhibition
Description: as §1

porcine pancreatic elastase, sequence (P00772 27-266): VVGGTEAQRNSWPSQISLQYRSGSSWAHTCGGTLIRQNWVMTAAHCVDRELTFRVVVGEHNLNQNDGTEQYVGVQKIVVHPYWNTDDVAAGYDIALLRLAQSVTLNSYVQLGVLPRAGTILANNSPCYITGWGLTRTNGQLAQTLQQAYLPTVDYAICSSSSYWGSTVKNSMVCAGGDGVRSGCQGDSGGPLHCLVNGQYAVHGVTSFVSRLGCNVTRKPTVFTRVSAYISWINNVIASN

In the case of C[C@@H](O)[C@H](NC(=O)[C@H](CCCCN)NC(=O)[C@]12CCC(C)(C)CC1C1=CCC3[C@@]4(C)CC[C@H](O)C(C)(C)C4CC[C@@]3(C)[C@]1(C)CC2)C(=O)N[C@H](C(=O)N[C@@H](CCCCN)C(=O)N[C@@H](CO)C(=O)O)[C@@H](C)O (stereo partly drawn) [Oleanoyl peptide, Oleanoyl-Lys-Thr-Thr-Lys-Ser-OH] (X1-KTTKS-OH), the IC50 [1] is reported as 143 µM, the “TNF α inhibition (IC50 μg/ml)” value (TNF α) is reported as 21 µg/mL and the “effect on dark circles under the eye” value (human skin) is reported as “reduction of dark circles under the eye”. For the same compound, the effect on hyperpigmentation (human skin) was “reduction in hyperpigmentation”, the “effect on skin thickness” value (human skin) was “improvement in skin thickness” and the effect on wrinkles (human skin) was “wrinkles are softened”. The enhancement in collagen (Human osteosarcoma cells) was 17%, the “Collagenase inhibition (IC50 μg/ml)” value [2] was 119 µg/mL and the “Concentration of NO produced (μmol/ml) Mean ± S.E.” value (“Concentration of NO produced” below) (Nitric Oxide (NO); test sample 0.125 μg/ml) was 42.77 ± 1.42 µmol/mL. For the same compound, the “Concentration of NO produced” value (Nitric Oxide (NO); test sample 0.25 μg/ml) was 41.21 ± 1.05 µmol/mL, the “Concentration of NO produced” value (Nitric Oxide (NO); test sample 0.5 μg/ml) was 39.25 ± 1.08 µmol/mL and the “Concentration of NO produced” value (Nitric Oxide (NO); test sample 1 μg/ml) was 34.12 ± 2.00 µmol/mL. For the same compound, the “Concentration of NO produced” value (Nitric Oxide (NO); test sample 2 μg/ml) was 30.21 ± 1.18 µmol/mL, the “% activity NO expression against LPS control” value (from here on “% activity NO expression”) (Nitric Oxide (NO); test sample 0.125 μg/ml) was 3.51↓ % and the “% activity NO expression” value (Nitric Oxide (NO); test sample 0.25 μg/ml) was 7.03↓ %. The “% activity NO expression” value (Nitric Oxide (NO); test sample 0.5 μg/ml) was 11.45↓ %, the “% activity NO expression” value (Nitric Oxide (NO); test sample 1 μg/ml) was 23.03↓ % and the “% activity NO expression” value (Nitric Oxide (NO); test sample 2 μg/ml) was 31.85%. For the same compound, the “% activity NO expression” value (Nitric Oxide (NO); test sample 2 μg/ml, listed as OP) was 31.85↓ %, the “% activity NO expression” value (Nitric Oxide (NO); test sample 4 μg/ml) was 29.66↓ % and the “Concentration of IL-1β produced (pg/ml) Mean ± S.E.” value (“Concentration of IL-1β produced” for short) ([3]; test sample 0.125 μg/ml) was 130.79 ± 3.07 pg/mL. The “Concentration of IL-1β produced” value ([3]; test sample 0.25 μg/ml) was 119.44 ± 2.23 pg/mL, the “Concentration of IL-1β produced” value ([3]; test sample 0.5 μg/ml) was 109.72 ± 3.21 pg/mL and the “Concentration of IL-1β produced” value ([3]; test sample 1 μg/ml) was 96.61 ± 3.63 pg/mL. For the same compound, the “Concentration of IL-1β produced” value ([3]; test sample 2 μg/ml) was 102.08 ± 2.61 pg/mL, the “Concentration of IL-1β produced” value ([3]; test sample 4 μg/ml) was 100.45 ± 3.78 pg/mL and the “% activity IL-1β expression against LPS control” value (“% activity IL-1β expression” for short) ([3]; test sample 0.125 μg/ml) was 6.29↓ %. The “% activity IL-1β expression” value ([3]; test sample 0.25 μg/ml) was 14.42↓ %, the “% activity IL-1β expression” value ([3]; test sample 0.5 μg/ml) was 21.39↓ % and the “% activity IL-1β expression” value ([3]; test sample 1 μg/ml) was 31.78%. The “% activity IL-1β expression” value ([3]; test sample 1 μg/ml, listed as OP) was 30.78↓ %, the “% activity IL-1β expression” value ([3]; test sample 2 μg/ml) was 26.86↓ % and the “% activity IL-1β expression” value ([3]; test sample 4 μg/ml) was 28.03↓ %.
